Experimental data from US9096615B2, “Bridged bicyclic amino thiazine dioxide compounds as inhibitors of beta-secretase and methods of use thereof” (AMGEN INC., priority 2013, dated 2015).

Key:
Format in all cases: biochemical
Cathepsin D (Cat D) = target: T1, Cathepsin D (Cat D) (Homo sapiens, UniProt P07339); assay: In vitro enzymatic Cathepsin D (Cat D) FRET assay; conditions: average IC50; first procedure; read-out: CatD IC50
T1 construct: made in house; host or cells: CHO cells
Method in brief: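 Fluorescence (500 nm excitation, 580 nm emission) was measured after Tris quench of a 1 h cleavage of 20 nM quenched peptide substrate. Before that, 9 nM CHO-expressed human Cat D sat with compound for 1 h at pH 3.5 (0.05 M citrate, 5 mM CHAPS, 10% DMSO final).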

BACE1 = BACE1 (Homo sapiens, UniProt P56817); assay: In vitro enzymatic BACE FRET assay; conditions: average IC50; read-out: BACE1 Enzyme assay IC50
Sequence of BACE1 (P56817 46-501, species assumed): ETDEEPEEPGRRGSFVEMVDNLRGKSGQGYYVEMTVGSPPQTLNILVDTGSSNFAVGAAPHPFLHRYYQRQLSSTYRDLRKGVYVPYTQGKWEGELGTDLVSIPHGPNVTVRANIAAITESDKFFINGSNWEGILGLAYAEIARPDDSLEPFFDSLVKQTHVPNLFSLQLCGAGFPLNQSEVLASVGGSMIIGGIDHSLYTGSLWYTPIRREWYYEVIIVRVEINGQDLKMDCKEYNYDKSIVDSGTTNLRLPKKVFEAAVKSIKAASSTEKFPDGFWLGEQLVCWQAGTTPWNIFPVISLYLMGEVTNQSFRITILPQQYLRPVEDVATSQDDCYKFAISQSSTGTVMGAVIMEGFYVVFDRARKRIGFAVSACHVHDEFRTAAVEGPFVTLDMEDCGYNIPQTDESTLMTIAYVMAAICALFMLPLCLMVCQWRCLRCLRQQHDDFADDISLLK
Method in brief: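 Fluorescence (excitation 488 nm, […]) from cleavage of quenched peptide substrate (50 nM), reaction run 1 h after 1 h enzyme–inhibitor pre-incubation, then neutralised with Tris. Conditions: 0.2 nM enzyme, pH 4.2 acetate 0.05 M, 10% DMSO final, 100 uM genapol.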

human Bace2 protein = target: T2, human Bace2 protein (Homo sapiens, UniProt Q9Y5Z0); assay: In vitro enzymatic BACE2 FRET assay; conditions: average IC50; read-out: BACE2 Enzyme assay IC50
T2 construct: V5 (C); 6-His (C)
T2 sequence (Q9Y5Z0 63-518): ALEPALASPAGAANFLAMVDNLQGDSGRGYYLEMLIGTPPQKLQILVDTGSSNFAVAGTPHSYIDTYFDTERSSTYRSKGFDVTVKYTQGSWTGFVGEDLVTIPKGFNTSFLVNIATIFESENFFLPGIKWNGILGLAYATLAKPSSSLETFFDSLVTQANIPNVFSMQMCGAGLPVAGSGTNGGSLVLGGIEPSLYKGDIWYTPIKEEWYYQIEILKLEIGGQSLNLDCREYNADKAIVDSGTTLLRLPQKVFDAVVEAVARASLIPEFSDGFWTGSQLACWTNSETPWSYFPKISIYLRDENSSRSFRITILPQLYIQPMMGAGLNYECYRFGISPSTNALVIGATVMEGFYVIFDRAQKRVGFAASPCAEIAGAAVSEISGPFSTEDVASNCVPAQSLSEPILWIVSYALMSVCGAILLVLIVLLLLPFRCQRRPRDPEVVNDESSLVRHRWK
Protocol: In Vitro Enzymatic BACE2 FRET (Fluorescence Resonance Energy Transfer) Assay
Enzyme Assay Data in the Table 3
The assay buffer used in this screen is 0.05 M acetate, pH 4.2, 10% DMSO final, 100 uM genapol (which is a nonionic detergent, below its Critical Micelle Concentration). The Beta Secretase2 enzyme (human Bace2 protein with C-terminal V5 and 6-His tag; 0.2 nM) is pre-incubated for one hour with inhibitors, typically in about 1 uL of DMSO according to a serial dilution, are added thereto. This assay is effectively started by the addition of FRET substrate (50 nM) and the combination is incubated for one hour. Final assay concentration of about 0.64 nM. The FRET assay is terminated with by addition of Tris buffer, which raises the pH to neutrality, and the fluorescence is determined. The FRET substrate is a peptide with commercially available fluorophore and quencher, on opposite sides of the BACE cleavage site. Proteolytic cleavage of the FRET substrate releases quenching of fluorescence (excitation 488 nm and […]).

T1 sequence (P07339 65-412, species assumed): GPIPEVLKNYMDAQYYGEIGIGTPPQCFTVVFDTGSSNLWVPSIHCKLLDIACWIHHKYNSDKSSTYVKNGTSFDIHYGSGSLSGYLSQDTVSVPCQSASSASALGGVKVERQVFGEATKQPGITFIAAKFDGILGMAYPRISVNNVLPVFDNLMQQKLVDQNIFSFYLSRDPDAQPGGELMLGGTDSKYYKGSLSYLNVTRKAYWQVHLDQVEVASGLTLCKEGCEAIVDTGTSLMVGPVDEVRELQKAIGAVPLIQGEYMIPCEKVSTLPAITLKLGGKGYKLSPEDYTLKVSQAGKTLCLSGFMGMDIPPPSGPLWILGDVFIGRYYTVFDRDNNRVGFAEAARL

Row | Compound | IC50 (Cathepsin D (Cat D)) [µM] | IC50 (BACE1) [µM] | IC50 (human Bace2 protein) [µM]
1 | CC#CCOc1cnc(C(=O)Nc2ccc(F)c([C@@]3(C)N=C(N)[C@@]4(C)CC[C@@H]3S4(=O)=O)c2)cn1 [Example 82, N-(3-((1S,2R,5R)-4-amino-2,5-dimethyl-8,8-dioxido-8-thia-3-azabicyclo[3.2.1]oct-3-en-2-yl)-4-fluorophenyl)-5-(2-butyn-1-yloxy)-2-pyrazinecarboxamide] | 717 | 0.0005 | 0.003
2 | C[C@]1(c2cc(NC(=O)c3ccc(Cl)cn3)ccc2F)N=C(N)[C@@]2(CF)CC[C@@H]1S2(=O)=O [Example 77, N-(3-((1S,2R,5R)-4-amino-5-(fluoromethyl)-2-methyl-8,8-dioxido-8-thia-3-azabicyclo[3.2.1]oct-3-en-2-yl)-4-fluorophenyl)-5-chloro-2-pyridinecarboxamide] | 570 | 0.003 | 0.001
3 | COc1cnc2c(Nc3ccc(F)c([C@@]4(C)N=C(N)[C@@]5(C)CC[C@@H]4S5(=O)=O)c3)ncc(F)c2c1 [Example 78, N-(3-((1S,2R,5R)-4-amino-2,5-dimethyl-8,8-dioxido-8-thia-3-azabicyclo[3.2.1]oct-3-en-2-yl)-4-fluorophenyl)-5-fluoro-3-methoxy-1,7-naphthyridin-8-amine] | 3240 | 0.003 | 0.005
4 | C[C@]1(c2cc(Nc3ncnc4cc(C(F)(F)F)cnc34)ccc2F)N=C(N)[C@@]2(C)CC[C@@H]1S2(=O)=O [Example 106, N-(3-((1S,2R,5R)-4-amino-2,5-dimethyl-8,8-dioxido-8-thia-3-azabicyclo[3.2.1]oct-3-en-2-yl)-4-fluorophenyl)-7-(trifluoromethyl)pyrido[3,2-d]pyrimidin-4-amine] | 317 | 0.011 | 0.067
5 | COc1cnc2c(Nc3ccc(F)c([C@@]4(C)N=C(N)[C@@]5(CF)CC[C@@H]4S5(=O)=O)c3)ncnc2c1 [Example 97, N-(3-((1S,2R,5R)-4-amino-5-(fluoromethyl)-2-methyl-8,8-dioxido-8-thia-3-azabicyclo[3.2.1]oct-3-en-2-yl)-4-fluorophenyl)-7-methoxypyrido[3,2-d]pyrimidin-4-amine] | 359 | 0.007 | 0.02
6 | C#CCOc1cnc(C(=O)Nc2ccc(F)c([C@@]3(C)N=C(N)[C@@]4(CF)CC[C@@H]3S4(=O)=O)c2)c(C)n1 [Example 59, N-(3-((1S,2R,5R)-4-amino-5-(fluoromethyl)-2-methyl-8,8-dioxido-8-thia-3-azabicyclo[3.2.1]oct-3-en-2-yl)-4-fluorophenyl)-3-methyl-5-(2-propyn-1-yloxy)-2-pyrazinecarboxamide] | 837 | 0.001 | 0.003
7 | COc1cnc2c(Nc3ccc(F)c([C@@]4(C)N=C(N)[C@@]5(CF)CC[C@@H]4S5(=O)=O)c3)nccc2c1 [Example 56, N-(3-((1S,2R,5R)-4-amino-5-(fluoromethyl)-2-methyl-8,8-dioxido-8-thia-3-azabicyclo[3.2.1]oct-3-en-2-yl)-4-fluorophenyl)-3-methoxy-1,7-naphthyridin-8-amine] | > 400 | 0.0188 | 0.0185
8 | COc1cnc2c(Nc3ccc(F)c([C@@]4(C)N=C(N)[C@@]5(C)CC[C@@H]4S5(=O)=O)c3)nccc2n1 [Example 80, N-(3-((1S,2R,5R)-4-amino-2,5-dimethyl-8,8-dioxido-8-thia-3-azabicyclo[3.2.1]oct-3-en-2-yl)-4-fluorophenyl)-2-methoxypyrido[3,4-b]pyrazin-5-amine] | > 400 | 0.008 | 0.015
9 | C[C@]1(c2cc(Nc3nccc4cc(C#N)cnc34)ccc2F)N=C(N)[C@@]2(CF)CC[C@@H]1S2(=O)=O [Example 100, 8-((3-((1S,2R,5R)-4-amino-5-(fluoromethyl)-2-methyl-8,8-dioxido-8-thia-3-azabicyclo[3.2.1]oct-3-en-2-yl)-4-fluorophenyl)amino)-1,7-naphthyridine-3-carbonitrile] | 337 | 0.001 | 0.0006
10 | C[C@]1(c2cc(Nc3nccc4nc(OCc5ncco5)cnc34)ccc2F)N=C(N)[C@@]2(C)CC[C@@H]1S2(=O)=O [Example 140, N-(3-((1S,2R,5R)-4-amino-2,5-dimethyl-8,8-dioxido-8-thia-3-azabicyclo[3.2.1]oct-3-en-2-yl)-4-fluorophenyl)-2-(1,3-oxazol-2-ylmethoxy)pyrido[3,4-b]pyrazin-5-amine] | 855 | 0.001 | 0.02
11 | COc1cnc(C(=O)Nc2ccc(F)c([C@@]3(C)N=C(N)[C@@]4(CF)CC[C@@H]3S4(=O)=O)c2)c(C)c1 [Example 42, N-(3-((1S,2R,5R)-4-amino-5-(fluoromethyl)-2-methyl-8,8-dioxido-8-thia-3-azabicyclo[3.2.1]oct-3-en-2-yl)-4-fluorophenyl)-5-methoxy-3-methyl-2-pyridinecarboxamide] | 757 | 0.013 | 0.003
12 | C[C@]1(c2cc(Nc3ncnc4cc(C#N)cnc34)ccc2F)N=C(N)[C@@]2(CF)CC[C@@H]1S2(=O)=O [Example 40, 4-((3-((1S,2R,5R)-4-amino-5-(fluoromethyl)-2-methyl-8,8-dioxido-8-thia-3-azabicyclo[3.2.1]oct-3-en-2-yl)-4-fluorophenyl)amino)pyrido[3,2-d]pyrimidine-7-carbonitrile] | 650 | 0.008 | 0.022
13 | C#CCOc1ccc(C(=O)Nc2ccc(F)c([C@@]3(C)N=C(N)[C@@]4(CF)CC[C@@H]3S4(=O)=O)c2)nc1 [Example 52, N-(3-((1S,2R,5R)-4-amino-5-(fluoromethyl)-2-methyl-8,8-dioxido-8-thia-3-azabicyclo[3.2.1]oct-3-en-2-yl)-4-fluorophenyl)-5-(2-propyn-1-yloxy)-2-pyridinecarboxamide] | 811 | 0.001 | 0.018
14 | C[C@]1(c2cc(Nc3nccc4nc(OCc5ncco5)cnc34)ccc2F)N=C(N)[C@@]2(CF)CC[C@@H]1S2(=O)=O [Example 104, N-(3-((1S,2R,5R)-4-amino-5-(fluoromethyl)-2-methyl-8,8-dioxido-8-thia-3-azabicyclo[3.2.1]oct-3-en-2-yl)-4-fluorophenyl)-2-(1,3-oxazol-2-ylmethoxy)pyrido[3,4-b]pyrazin-5-amine] | 799 | 0.002 | 0.003
15 | Cc1cc(OC(F)F)cnc1C(=O)Nc1ccc(F)c([C@@]2(C)N=C(N)[C@@]3(CF)CC[C@@H]2S3(=O)=O)c1 [Example 102, N-(3-((1S,2R,5R)-4-amino-5-(fluoromethyl)-2-methyl-8,8-dioxido-8-thia-3-azabicyclo[3.2.1]oct-3-en-2-yl)-4-fluorophenyl)-5-(difluoromethoxy)-3-methyl-2-pyridinecarboxamide] | 451 | 0.004 | 0.008
16 | COc1cnc2c(Nc3ccc(F)c([C@@]4(C)N=C(N)[C@@]5(C)CC[C@@H]4S5(=O)=O)c3)ncnc2c1 [Example 132, N-(3-((1S,2R,5R)-4-amino-2,5-dimethyl-8,8-dioxido-8-thia-3-azabicyclo[3.2.1]oct-3-en-2-yl)-4-fluorophenyl)-7-methoxypyrido[3,2-d]pyrimidin-4-amine] | 965 | 0.006 | 0.051
17 | COc1cnc2c(Nc3ccc(F)c([C@@]4(C)N=C(N)[C@@]5(CF)CC[C@@H]4S5(=O)=O)c3)nccc2n1 [Example 41, N-(3-((1S,2R,5R)-4-amino-5-(fluoromethyl)-2-methyl-8,8-dioxido-8-thia-3-azabicyclo[3.2.1]oct-3-en-2-yl)-4-fluorophenyl)-2-methoxypyrido[3,4-b]pyrazin-5-amine] | 867 | 0.009 | 0.01
18 | COc1cnc(C(=O)Nc2ccc(F)c([C@@]3(C)N=C(N)[C@@]4(CF)CC[C@@H]3S4(=O)=O)c2)c(C)n1 [Example 76, N-(3-((1S,2R,5R)-4-amino-5-(fluoromethyl)-2-methyl-8,8-dioxido-8-thia-3-azabicyclo[3.2.1]oct-3-en-2-yl)-4-fluorophenyl)-5-methoxy-3-methyl-2-pyrazinecarboxamide] | 1060 | 0.01 | 0.004
